# Measured values published in US20060154903A1, “Betulinol derivatives as anti-cancer agents” (priority 2004, published 2006).
# Where two headings read alike, the source gives them in different places.
# Experiments:
# [1] = Solubilization in PBS containing human γ-globulin, human albumin and ethanol; conditions: for Observation: 1 × 10^−3 mol/L
# From the text: Human γ-Globulin and human albumin are two major biocompatible components in human serum.
# [2] = test system: human prostate cancer DU-145 cell line; test: MTT cytotoxicity assay, DU-145; format: cell-based; conditions: for Percent Killed: Prostate (1); for Growth Inhibition %: 1 × 10^−5
# Experimental: (§1) The human prostate cancer LNCaP, PC-3, and DU-145 cell lines, as well as human fibroblast cell line, were obtained from the American Type Culture Collection (“ATCC”) and maintained in RPMI-1640, F-12k, and MEM mediums, respectively, supplemented with 10% FBS. Cell lines were maintained at 37° C. under a humidified atmosphere and 5% CO2 for testing of the cytotoxicity of betulinol derivatives. The cytotoxicity assay was performed using MTT assay according to the instructions of ATCC protocol. Cells 1×10^5 in 0.1 ml/well were plated in 96-well culture plates (Costar) and incubated with a different dilution of betulinol derivatives for 24, 48, and 72 hours. Ten μl of 3-[4,5-dimethylthiazol-2-yl]-2,5 diphenyl tetrazolium bromide was added into each well at the end of each incubation period. The reaction product, formazan, was dissolved in the detergent, and the absorbance was read at 540 nm (Ref).
# [3] = test system: human prostate cancer LNCaP cell line; test: MTT cytotoxicity assay, LNCaP; format: cell-based; conditions: for Percent Killed / inhibition at 100 µM / inhibition at 10 µM / inhibition at 1 µM / Growth Inhibition %: LNCaP; for Percent Killed: Prostate (1); for inhibition at 100 µM / inhibition at 10 µM / inhibition at 1 µM: Homo sapiens, read-out: Growth Inhibition %; for inhibition at 1 µM: 1 × 10^−6 M; for Growth Inhibition %: 1 × 10^−5 (Table 12)
# Experimental: as §1
# However, these compounds were not tested on prostate cancer LNCaP cell line by NCI. […] The anti-tumor activity of the compounds was determined at three doses and the total growth inhibition kill effect as pertinent of the control at 24, 48, and 72 hours as presented in Table 11.
# [4] = test system: human fibroblast cell line; format: cell-based; conditions: Fibroblasts; for Percent Killed: Prostate (1); for Growth Inhibition %: 1 × 10^−5
# Experimental: as §1
# [5] = Solubility in DMSO diluted with culture medium (GC); conditions: for State of solution: 0.5 mg/mL (1 × 10^−3 mol/L), culture medium
# Experimental: The residue was dissolved in chloroform analyzed on GC.
# Ethyl ether was then evaporated. […] Concentration of drug in the above solutions was analyzed by GC and determined from the standard solubility curve.
# [6] = test system: LNCaP xenografts; format: in vivo, athymic mice
# Experimental: All the animal studies were performed according to the guidelines and approval of the Institutional Animal Care and Use Committee and Research Animal Resource Center of Weill Medical College of Cornell University, New York. Twelve mice of 13 weeks of age were purchased from The National Cancer Institute (NCI) and were housed in a pathogen-free environment under controlled conditions of light and humidity and with free access to food and water. LNCaP cells were grown in RPMI-1640 with 10% FBS until 80-90% confluent. Cells were scraped into PBS and collected by centrifugation. The LNCaP cell pellets were suspended in Matrigel (Ref) at 2.5×10^7 cells/ml. Mice were injected subcutaneously (“s.c.”) with 200 μl (5×10^6 cells) of the cell suspension at one site on the flank. Visible tumor grew after 7-8 days following implantation and mice were divided into three groups of four mice each.
# Mice received s.c. injection daily for ten days. […] Tumors were measured daily with calipers, and tumor volumes were calculated by the formula: π/6(1×w×h). Animals were also weighed daily and monitored for general health status and vital signs of possible toxicity due to treatment. At the end of the treatment period, the animals were sacrificed and tumors were excised, weighed and prepared for immunohistochemical and histological studies. […]
# [7] = test system: DU-145; test: Anchorage-independence growth assay in soft agar, DU-145; format: cell-based; conditions: Homo sapiens, 336 h, 1 × 10^−5 M, 14 days, read-out: Inhibition % on Anchorage-independent Growth
# Experimental: (§2) Anchorage-independence growth assay was performed to determine the ability of cancer cells to form colonies in soft agar. 1.0×10^4 cancer cells were suspended in 2 ml of DMEM medium containing 0.33% agar in the presence or absence of betulinol derivatives. The compounds were overlaid on a 2 ml matrix made up of 0.6% agar. The cultures were incubated at 37° C. in a humidified environment under 5% CO2 for 14 days without medium change. The cultures were fixed in Comoy's fixative (acetic acid/100% ethanol 1:3 v/v) and the numbers of anchorage-independent, tridimentional colonies (≧40 μm diameter) formed were counted under 10× magnification (Katdare et al., Cancer Lett. 111:141-47 (1997), which is hereby incorporated by reference in its entirety).
# [8] = test system: 184B5/HER; test: In vitro cytotoxicity, Breast (1), 184B5/HER; format: cell-based; conditions: 1 × 10^−4 M
# [9] = test system: human prostate cancer PC-3 cell line; test: MTT cytotoxicity assay, PC-3; format: cell-based; conditions: for Percent Killed: Prostate (1); for Growth Inhibition %: 1 × 10^−5
# Experimental: as §1
# [10] = test system: PC-3; test: Anchorage-independence growth assay in soft agar, PC-3; format: cell-based; conditions: Homo sapiens, 336 h, 1 × 10^−5 M, 14 days, read-out: Inhibition % on Anchorage-independent Growth
# Experimental: as §2
# [11] = test system: LNCaP; test: Anchorage-independence growth assay in soft agar, LNCaP; format: cell-based; conditions: Homo sapiens, 336 h, 1 × 10^−5 M, 14 days, read-out: Inhibition % on Anchorage-independent Growth
# Experimental: as §2
# [12] = test system: Bladder cancer cells; conditions: 1 × 10^−4 M; Bladder (1), cell line not given
compound,measurement,setting,value
"C=C(C)C1CCC2(C(=O)O)CC[C@]3(C)[C@H](CC[C@@H]4[C@@]5(C)CCC(=O)C(C)(C)[C@@H]5CC[C@]43C)C12 (some centres unmarked) [Compound 4, Betulonic Acid]",Observation,"[1]; ethanol 220 μL, γ-globulin PBS 1.48 mL, albumin PBS 0.49 mL",Cloudy
same,Observation,"[1]; ethanol 280 μL, γ-globulin PBS 0 mL, albumin PBS 2.50 mL",Complete
same,Observation,"[1]; ethanol 280 μL, γ-globulin PBS 2.50 mL, albumin PBS 0 mL",Suspension
same,Observation,"[1]; ethanol 308 μL, γ-globulin PBS 0.69 mL, albumin PBS 2.07 mL",Almost Clear
same,Observation,"[1]; ethanol 330 μL, γ-globulin PBS 1.48 mL, albumin PBS 1.48 mL",Little Cloudy
same,Observation,"[1]; ethanol 352 μL, γ-globulin PBS 0.32 mL, albumin PBS 2.85 mL",Clear
same,concentration completely dissolved,"[1]; PBS containing 4% human albumin, final concentration of 10% ethanol",1×10^−3 mol per liter
same,concentration completely dissolved,[1]; human albumin PBS solution with 10% ethanol,0.001 mol/L
same,Percent Killed,[2]; 1 × 10^−4 M,54%
same,Percent Killed,[2]; 1 × 10^−5 M,51%
same,Growth Inhibition %,[2]; 24 hours,33%
same,Growth Inhibition %,[2]; 48 hours,51%
same,Percent Killed,[3]; 1 × 10^−4 M,81%
same,Percent Killed,[3]; 1 × 10^−5 M,75%
same,inhibition at 100 µM,"[3]; 24 h, 24 hours, 1 × 10^−4 M",70.4 ± 19.1%
same,inhibition at 10 µM,"[3]; 24 h, 24 hours, 1 × 10^−5 M",24.2 ± 10.8%
same,inhibition at 1 µM,"[3]; 24 h, 24 hours",9.2 ± 6.1%
same,inhibition at 100 µM,"[3]; 48 h, 48 hours, 1 × 10^−4 M",81 ± 12.6%
same,inhibition at 10 µM,"[3]; 48 h, 48 hours, 1 × 10^−5 M",69.5 ± 20.2%
same,inhibition at 1 µM,"[3]; 48 h, 48 hours",27.8 ± 11.4%
same,inhibition at 100 µM,"[3]; 72 h, 72 hours, 1 × 10^−4 M",80.8 ± 15.8%
same,inhibition at 10 µM,"[3]; 72 h, 72 hours, 1 × 10^−5 M",88.4 ± 7.96%
same,inhibition at 1 µM,"[3]; 72 h, 72 hours",45 ± 12.3%
same,Growth Inhibition %,[3]; 24 hours,38 ± 8%
same,Growth Inhibition %,[3]; 48 hours,75 ± 9%
same,kill effects on LNCaP cell growth compared to the other compounds,"[3]; MTT assay, compounds 1-8",highest kill effects
same,Percent Killed,[4]; 1 × 10^−4 M,No effect
same,Percent Killed,[4]; 1 × 10^−5 M,No effect
same,Growth Inhibition %,[4]; 24 hours,0%
same,Growth Inhibition %,[4]; 48 hours,0%
same,State of solution,[5]; 3% DMSO in total Vol.,Suspension
same,State of solution,[5]; 9% DMSO in total Vol.,Suspension
same,State of solution,[5]; 14% DMSO in total Vol.,Cloudy
same,State of solution,[5]; 20% DMSO in total Vol.,clear solution
same,State of solution,"[5]; 20% DMSO in total Vol., listed as BA",Clear
same,amount dissolved out of 3 mg,"[5]; 1% DMSO in culture medium containing 10% FBS, nominal 1×10^−3 mol/L",0.4 mg
same,health status and vital signs of the mice during treatment,"[6]; mouse, in vivo",no adverse effects on vital signs
same,increase of tumor volume on day 10 compared to day 1,"[6]; s.c. daily for ten days, 20 mg/kg, LNCaP xenografts in athymic mice",20.3%
same,inhibition at 10 µM,[7],12.5%
same,Percent Killed,[8],Toxic
same,Percent Killed,[9]; 1 × 10^−4 M,54%
same,Percent Killed,[9]; 1 × 10^−5 M,41%
same,Growth Inhibition %,[9]; 24 hours,9.7%
same,Growth Inhibition %,[9]; 48 hours,41.1%
same,inhibition at 10 µM,[10],26.1%
same,inhibition at 10 µM,[11],0%
same,Percent Killed,[12],37%
